Assay results: PMC12486440, “Design, synthesis, and in silico studies of new benzofuran–pyrazole hybrids as multi-kinase inhibitors with potential antiproliferative activity” (RSC Advances, 2025)

Tests used:
[1] = tested on: MDA-MB-435; settings: single dose 10 μM; melanoma
[2] = tested on: SK-MEL-5; settings: single dose 10 μM; melanoma
[3] = tested on: UACC-62; settings: single dose 10 μM; melanoma
[4] = tested on: T-47D; settings: single dose 10 μM; breast carcinoma
[5] = tested on: OVCAR-4; settings: single dose 10 μM; ovarian carcinoma
[6] = tested on: CAKI-1; settings: single dose 10 μM; renal carcinoma
[7] = tested on: HL-60(TB); settings: single dose 10 μM; leukemia
[8] = tested on: HCT-15; settings: single dose 10 μM; colon cancer
[9] = tested on: M14; settings: single dose 10 μM; melanoma
[10] = tested on: RPMI-8226; settings: single dose 10 μM; leukemia
[11] = tested on: SK-MEL-2; settings: single dose 10 μM; melanoma
[12] = tested on: U251; settings: single dose 10 μM; CNS cancer
[13] = tested on: SK-MEL-28; settings: single dose 10 μM; melanoma
[14] = tested on: DU-145; settings: single dose 10 μM; prostate carcinoma
[15] = tested on: MALME-3M; settings: single dose 10 μM; melanoma
[16] = tested on: HOP-62; settings: single dose 10 μM; non-small lung carcinoma
[17] = tested on: SF-268; settings: single dose 10 μM; CNS cancer
[18] = tested on: SNB-19; settings: single dose 10 μM; CNS cancer
[19] = tested on: SW-620; settings: single dose 10 μM; colon cancer
[20] = tested on: OVCAR-3; settings: single dose 10 μM; ovarian carcinoma
[21] = tested on: LOX IMVI; settings: single dose 10 μM; melanoma
[22] = tested on: SR; settings: single dose 10 μM; leukemia
[23] = tested on: MDA-MB-468; settings: single dose 10 μM; breast carcinoma
[24] = tested on: 786–0; settings: single dose 10 μM; renal carcinoma
[25] = tested on: SF-539; settings: single dose 10 μM; CNS cancer
[26] = tested on: OVCAR-8; settings: single dose 10 μM; ovarian carcinoma
[27] = tested on: HCC-2998; settings: single dose 10 μM; colon cancer
[28] = tested on: K-562; settings: single dose 10 μM; leukemia
[29] = tested on: NCI 60 cancer cell line panel; assay: NCI 60 full panel summary; settings: single dose 10 μM; mean over the NCI 60 panel
[30] = tested on: PC-3; settings: single dose 10 μM; prostate carcinoma
[31] = tested on: SK-OV-3; settings: single dose 10 μM; ovarian carcinoma
[32] = tested on: ACHN; settings: single dose 10 μM; renal carcinoma
[33] = tested on: IGROV1; settings: single dose 10 μM; ovarian carcinoma
[34] = tested on: UACC-257; settings: single dose 10 μM; melanoma
[35] = tested on: NCI-H226; settings: single dose 10 μM; non-small lung carcinoma
[36] = tested on: EKVX; settings: single dose 10 μM; non-small lung carcinoma
[37] = tested on: NCI-H23; settings: single dose 10 μM; non-small lung carcinoma
[38] = tested on: A498; settings: single dose 10 μM; renal carcinoma
[39] = tested on: UO-31; settings: single dose 10 μM; renal carcinoma
[40] = tested on: MOLT-4; settings: single dose 10 μM; leukemia
[41] = tested on: HCT-116; settings: single dose 10 μM; colon cancer
[42] = tested on: COLO 205; settings: single dose 10 μM; colon cancer
[43] = tested on: SN12C; settings: single dose 10 μM; renal carcinoma
[44] = tested on: TK-10; settings: single dose 10 μM; renal carcinoma
[45] = tested on: MCF7; settings: single dose 10 μM; breast carcinoma
[46] = tested on: NCI-H522; settings: single dose 10 μM; non-small lung carcinoma
[47] = tested on: NCI-H460; settings: single dose 10 μM; non-small lung carcinoma
[48] = tested on: A549/ATCC; settings: single dose 10 μM; non-small lung carcinoma
[49] = tested on: OVCAR-5; settings: single dose 10 μM; ovarian carcinoma
[50] = tested on: SNB-75; settings: single dose 10 μM; CNS cancer
[51] = tested on: SF-295; settings: single dose 10 μM; CNS cancer
[52] = tested on: HT29; settings: single dose 10 μM; colon cancer
[53] = tested on: RXF 393; settings: single dose 10 μM; renal carcinoma
[54] = tested on: CCRF-CEM; settings: single dose 10 μM; leukemia
[55] = tested on: HOP-92; settings: single dose 10 μM; non-small lung carcinoma
[56] = tested on: KM12; settings: single dose 10 μM; colon cancer
[57] = tested on: BT-549; settings: single dose 10 μM; breast carcinoma

## COc1ccc(C2=NNC(c3cn(-c4ccccc4)nc3-c3cc4ccccc4o3)C2)cc1OC (stereo not shown) [3c, 3-(Benzofuran-2-yl)-4-(3-(3,4-dimethoxyphenyl)-4,5-dihydro-1H-pyrazol-5-yl)-1-phenyl-1H-pyrazole]
[1]
  GI%: 65.91%
[2]
  GI%: 74.73%
[3]
  GI%: 62.47%
[4]
  GI%: 81.51%
[5]
  GI%: 58.72%
[6]
  GI%: 76.85%
[7]
  GI%: 88.80%
[8]
  GI%: 49.94%
[9]
  GI%: 63.24%
[10]
  GI%: 88.22%
[11]
  GI%: 47.50%
[12]
  GI%: 60.18%
[13]
  GI%: 35.60%
[14]
  GI%: 58.05%
[15]
  GI%: 30.46%
[16]
  GI%: 33.71%
[17]
  GI%: 61.15%
[18]
  GI%: 59.83%
[19]
  GI%: 47.04%
[20]
  GI%: 65.22%
[21]
  GI%: 65.24%
[22]
  GI%: 77.33%
[23]
  GI%: 78.06%
[24]
  GI%: 52.36%
[25]
  GI%: 56.77%
[26]
  GI%: 63.70%
[27]
  GI%: 64.60%
[28]
  GI%: 87.48%
[29]
  Mean GI%: 60.71%
[30]
  GI%: 66.98%
[31]
  GI%: 32.78%
[32]
  GI%: 74.84%
[33]
  GI%: 61.79%
[34]
  GI%: 45.64%
[35]
  GI%: 68.39%
[36]
  GI%: 57.67%
[37]
  GI%: 53.25%
[38]
  GI%: 7.63%
[39]
  GI%: 80.36%
[40]
  GI%: 80.97%
[41]
  GI%: 74.37%
[42]
  GI%: 47.04%
[43]
  GI%: 63.01%
[44]
  GI%: 42.27%
[45]
  GI%: 77.82%
[46]
  GI%: 51.41%
[47]
  GI%: 81.94%
[48]
  GI%: 57.50%
[49]
  GI%: 41.14%
[50]
  GI%: 58.00%
[51]
  GI%: 58.47%
[52]
  GI%: 64.31%
[53]
  GI%: 36.89%
[54]
  GI%: 84.09%
[55]
  GI%: 75.25%
[56]
  GI%: 68.12%

## CC(=O)N1N=C(c2nc3ccccc3[nH]2)CC1c1cn(-c2ccccc2)nc1-c1cc2ccccc2o1 (stereo not shown) [4d, 1-(5-(3-(Benzofuran-2-yl)-1-phenyl-1H-pyrazol-4-yl)-3-(1H-benzo[d]imidazol-2-yl)-4,5-dihydropyrazol-1-yl)ethanone]
[2]
  GI%: 0.87%
[3]
  GI%: 2.82%
[4]
  GI%: 18.84%
[6]
  GI%: 7.51%
[7]
  GI%: 5.44%
[8]
  GI%: 1.38%
[9]
  GI%: 2.74%
[10]
  GI%: 4.74%
[13]
  GI%: 1.16%
[15]
  GI%: 5.76%
[57]
  GI%: 9.21%
[17]
  GI%: 1.38%
[18]
  GI%: 4.75%
[22]
  GI%: 18.72%
[24]
  GI%: 4.06%
[25]
  GI%: 0.68%
[28]
  GI%: 2.81%
[29]
  Mean GI%: 1.26%
[30]
  GI%: 5.99%
[34]
  GI%: 1.22%
[35]
  GI%: 3.03%
[36]
  GI%: 5.61%
[38]
  GI%: 5.12%
[39]
  GI%: 13.92%
[40]
  GI%: 5.60%
[43]
  GI%: 6.54%
[44]
  GI%: 15.06%
[45]
  GI%: 5.40%
[46]
  GI%: 1.70%
[49]
  GI%: 6.06%
[51]
  GI%: 9.71%
[52]
  GI%: 0.62%
[53]
  GI%: 2.67%
[54]
  GI%: 10.91%
[55]
  GI%: 8.82%

## COc1ccc(C2=NN(C(C)=O)C(c3cn(-c4ccccc4)nc3-c3cc4ccccc4o3)C2)cc1OC (stereo not shown) [4c, 1-(5-(3-(Benzofuran-2-yl)-1-phenyl-1H-pyrazol-4-yl)-3-(3,4-dimethoxyphenyl)-4,5-dihydropyrazol-1-yl)ethanone]
[2]
  GI%: 5.22%
[4]
  GI%: 5.68%
[6]
  GI%: 13.64%
[7]
  GI%: 12.17%
[8]
  GI%: 2.45%
[10]
  GI%: 11.35%
[11]
  GI%: 1.30%
[14]
  GI%: 1.59%
[15]
  GI%: 3.54%
[16]
  GI%: 3.35%
[57]
  GI%: 3.97%
[17]
  GI%: 4.67%
[18]
  GI%: 6.15%
[19]
  GI%: 4.67%
[21]
  GI%: 3.27%
[22]
  GI%: 16.71%
[23]
  GI%: 8.49%
[24]
  GI%: 4.42%
[25]
  GI%: 1.95%
[28]
  GI%: 7.80%
[29]
  Mean GI%: 2.51%
[30]
  GI%: 3.89%
[31]
  GI%: 7.21%
[34]
  GI%: 6.12%
[35]
  GI%: 1.68%
[36]
  GI%: 2.78%
[37]
  GI%: 3.23%
[38]
  GI%: 3.05%
[39]
  GI%: 11.00%
[40]
  GI%: 8.51%
[43]
  GI%: 10.86%
[45]
  GI%: 8.83%
[46]
  GI%: 1.54%
[48]
  GI%: 2.60%
[49]
  GI%: 5.34%
[50]
  GI%: 14.70%
[51]
  GI%: 4.33%
[54]
  GI%: 9.93%
[56]
  GI%: 1.20%
